Source: patent publication US11672786B2, “Methods of treating diseases associated with repeat instability” (The Hospital for Sick Children, priority 2016, dated 2023)

Assays:
long (CAG)20 slip-out = assay: in vitro repair assay by HeLa cell extracts, long (CAG)20 slip-out; format: biochemical, human
Excerpt: Panel A of […] is a schematic of the in vitro repair assay. Starting DNAs and repair products released the repeat-containing fragment, which is resolved on PAGE and assessed on a molar level by Southern blotting and densitometry. Repair of different DNA substrates containing a long (CAG)20 slip-out (Panel B of FIG. 3) long (CTG)20 slip-out (Panel C of FIG. 3), a single CAG slip-out (Panel D of FIG. 3) or a single G-T mismatch (Panel E of FIG. 3), in the absence or in the presence of NA. Slipped-DNA substrates were prepared from hybrids of (CAG)50●(CTG)30, (CAG)30●(CTG)50 or of (CAG)50●(CTG)49. Repair of the G-T mismatch reconstitutes a HindIII restriction site, as shown schematically. Graphs show percentage repair efficiencies to repaired product relative to all repeat-containing fragments in the lane, values are normalized to the NA-free efficiency. […]
To determine how the binding of NA to slipped DNA structures affects repair, a series of circular slipped heteroduplex substrates was made with an excess of repeats with a nick located either 5′ or 3′ of the slip-out (FIG. 3). […] All these substrates were processed in […] by HeLa extracts and then were assessed for repair. Repair products were analyzed by Southern blotting, probed for the repeat-containing fragment, and compared with starting material, which permitted quantitative assessment of repair efficiency at a molar level. […]

[1] = system: HPRT1 exons 2 and 3, HD primary fibroblast cell line GM09197; assay: HPRT1 sequence analysis by SMRT-CCS sequencing (general mutagen test); format: cell-based, human
Excerpt: Towards assessing whether NA-treatment acted as a general mutagen to sequences other than CAG slip-outs, the high read accuracy and depth of single molecule, real time, circular consensus sequencing (SMRT-CCS) was harnessed. Single-molecule sequencing was done on the HPRT1 gene—widely used as a surrogate indicator of the global effect of induced genetic variation. Single-molecule sequencing can detect mutations at frequencies below 0.5% with no false positives. Panel A of FIG. 13 is a schematic of HPRT1 sequencing for mutation detection. Briefly, cells were grown under identical conditions differing only by the addition of NA (50 μM) or saline, DNAs were isolated, HPRT1 exons 2 and 3 PCR amplified and sequenced. Panel B of FIG. 13 are graphs showing the comparison of sequence variations between NA-treated and saline-treated samples. We chose to compare the single-molecule sequence reads of individual X chromosome-linked HPRT1 alleles (exons 2 and 3, 2,897 nucleotides) from the HD patient-derived cells that had been NA- or saline-treated. In this manner, each read would represent a single cell. Graphs show the distribution of sequence variants by relative mutation rate between three experimental replicates of NA-treated and saline-treated cells sequenced with PacBio single-molecule long reads.
DNAs were extracted from three independent NA treatments of the HD primary fibroblast cell line GM09197 and from three independent untreated control cells. HPRT1 exons 2 and 3 were amplified using the high fidelity Platinum Taq DNA Polymerase (Invitrogen, Cat #11304) and the primers shown in Table 1. Amplification products were analyzed using single molecule, real-time (SMRT) sequencing on the PacBio RSII instrument (see FIG. 13A).
Specifically, a ˜2.8 kb PCR product spanning exons two and three of HPRT1 was sequenced for three replicates of HD patient-derived cells in both NA- and saline-treated colonies on a Pacific Biosciences (PacBio) RSII with P6-C4v2 chemistry, 360 minute movies, and one SMRT cell per replicate/treatment combination. Individual molecules from the original cell colony were represented by single long reads from the corresponding SMRT cell. PacBio's SMRTbell construct allows a single molecule to be sequenced one or more times in a single long read based on the number of “passes” the sequencing polymerase makes around the SMRTbell insert. An average of 99,023 distinct reads were sequenced per SMRT cell. The resulting long reads contained an average of ˜7 passes through the insert sequence. The average median insert length per SMRT cell was 2,873 bp. […] Based on these filters, an average of 1,343 consensus sequences per replicate/treatment pair were produced with a range of up to 2,402 sequences. […] To estimate the mutation rate for each replicate/treatment combination, the number of times a specific variant occurred was calculated between high-quality PacBio consensus reads at a specific position in the human reference (GRCh38) divided by the total number of high-quality reads aligned across each position. For each replicate, the relative mutation rate was calculated between NA- and saline-treated cells as the mutation rate for NA-treated cells minus the rate for saline-treated cells and identified excess mutation rates based on an absolute relative rate >0.5%. […]

d(CAG)10 = conditions: ESI-TOF MS; cited from earlier work

## naphthyridine-azaquinolone
Long (CAG)20 slip-out
  effect on repair of long (CAG)20 slip-outs: specifically inhibits repair
[1]; 50 μM NA, across 2,897 positions, control 84
  distinct sites with extreme relative mutation rates, number: 113
[1]; 50 μM NA, control 2.9%
  distinct sites with extreme relative mutation rates, percent: 3.9%
[1]; 50 μM NA, of the 15,277 variants across three replicates, saline 101
  variants with extreme mutation rates (absolute relative rate >0.5%), number: 149
[1]; 50 μM NA, saline 0.7%
  variants with extreme mutation rates, percent: 1.0%
[1]; p=0.1083, two-sample Kolmogorov-Smirnov test
  mutation rates NA- versus saline-treated: not significantly different
d(CAG)10
  number of NA molecules bound to the repeat: at least 6 NA molecules
